“Also recorded” adds a separate entry of the source. Where two headings read alike, the source gives them in different places.
Legend:
[1] = test system: U251MG glioblastoma cells; test: CyQuant cell viability/proliferation assay, U251MG; format: cell-based, human; design: key to Activity against U251: +, active; −, no activity; +/−, poorly active; conditions: for Activity against U251: Table 1 grade, Table 1/FIG. 2 compound numbering; for Activity against the cell lines, in words: tested at 5 micromolar; for Cell-type selectivity of growth inhibition, in words: U251MG versus other cells incl. NIH3T3
Protocol: (§1) The cell viability assay was performed as previously reported (Zhang X, et al. (2010)). Briefly, a 10 millimolar concentration stock solution in dimethylsulfoxide (DMSO) of the tested molecule was first prepared. Next, the stock solution was diluted down to various working solutions in water. Thus, a formulation of the tested compound in a DMSO/water mixture was used to test for cell viability. (A novel small-molecule disrupts STAT3 SH2 domainphosphotyrosine interactions and STAT3-dependent tumor processes, Biochem Pharmacol 79:1398-1409; Zhao W, Jaganathan S, & Turkson J (2010), A cell-permeable STAT3 SH2 domain mimetic inhibits STAT3 activation and induces antitumor cell effects in vitro. J Biol Chem. 285:35855-35865). Cells (U251MG, MDA-MB-231 or NIH3T3) were obtained from ATCC (Manassas, Va.) and were cultured in 96-well plates at 2,000 cells per well for 24 h and were treated with compounds (5 micromolar concentration) for 72 h. Cell viabilty was determined using CyQuant assay, according to the manufacturer's (Invitrogen, CA, USA) instructions. Relative viability of the treated cells was normalized to the DMSO-treated control cells.

Stat3 = Stat3 (Homo sapiens, UniProt P40763); test: Activity against Stat3 (Table 1 grade); format: biochemical; design: key: +, active; −, no activity; +/−, poorly active; conditions: Table 1/FIG. 2 compound numbering
[2] = biological target: T1, STAT3 (NIH3T3/v-Src nuclear extracts) (Mus musculus, UniProt P42227); test: In vitro STAT3 DNA-binding activity/EMSA, nuclear extracts incubated with compound; format: biochemical; conditions: 5 micromolar, 30 min at room temperature
T1 construct: nuclear extracts prepared from v-Src-transformed mouse fibroblasts (NIH3T3/v-Src) containing active STAT3; endogenous in cells; host or cells: NIH3T3/v-Src mouse fibroblasts (nuclear extract)
Protocol: To further determine the effects of the bioactive agents on STAT3 activity, nuclear extracts prepared from v-Src-transformed mouse fibroblasts (NIH3T3/v-Src) containing active STAT3 were directly incubated with 5 micromolar compounds for 30 min at room temperature prior to performing STAT3 DNA-binding activity in vitro with EMSA analysis. […] These studies indicate that agents directly interact with STAT3 and disrupt STAT3:STAT3 dimers, thereby inhibiting its DNA-binding activity.
Data are representative of 2-3 independent determinations.
Nuclear extract preparations and DNA-binding/electrophoretic mobility shift assay (EMSA) were carried out as previously described (Xu, supra). Nuclear extract preparations and DNA-binding activity/electrophoretic mobility shift assay (EMSA) were carried out as previously described. U251 MG and MDA-MB-231 cells culture were pretreated with different concentrations of the compounds for the indicated period and then harvested for nuclear extract preparation and DNA-binding assay with EMSA analysis. The ^32P-labeled oligonucleotide probe used was hSIE (high-affinity sis-inducible element) from the c-fos gene, m67 variant (5′-[…]-3′) that binds STAT3. Except where indicated, nuclear extracts were pre-incubated with compound for 30 min at room temperature prior to incubation with the radiolabeled probe for 30 min at 30° C. before subjecting to EMSA analysis. Where appropriate, bands corresponding to DNA-binding activities were scanned and quantified for each concentration of compound using ImageJ and plotted as percent of control (vehicle) against concentration of compound, from which the IC50 values were derived.

[3] = test system: pY705STAT3 in U251MG or MDA-MB-231 cells; test: Immunoblotting of pY705STAT3 in treated tumor cells; conditions: 5 micromolar, U251MG or MDA-MB-231; for Effect on pY705STAT3 / STAT3 activity (immunoblot), in words: 0-24 h, Table 1/FIG. 2 numbering
Protocol: Positions of STATs:DNA complexes or proteins in gel are labeled; control lanes (0) represent nuclear extracts or whole-cell lysates prepared from 0.05% DMSO-treated cells. Data are representative of at least three to four independent determinations.
Lysates of equal total protein prepared in the lysis buffer (50 mM Hepes, pH 7.5, 150 mM NaCl, 2 mM EDTA, 1% Triton X-100, 0.1% SDS), were subjected to IP or Western blotting analysis. Antibodies against STAT3, pY705STAT3, Src, pY416Src, Erk1/2, and pT202/Y204Erk1/2 and GAPDH (Cell Signaling Technology, Danvers, Mass.), and anti-β-actin, and HSP105 (Santa Cruz Biotechnology, Dallas, Tex.) are from the designated sources.
Whole-cell lysates were prepared in boiling SDS sample loading buffer to extract total proteins, as reported previously. […] Nitrocellulose membranes were probed with primary antibodies, and the detection of horseradish peroxidase-conjugated secondary antibodies by enhanced chemiluminescence (Amersham) was performed. Antibodies used were monoclonal anti-pYSTAT3 and anti-STAT3 antibodies (Cell Signaling Technology, Danvers, Mass.).

[4] = test system: MDA-MB-231 breast cancer cells; test: CyQuant cell viability/proliferation assay, MDA-MB-231; format: cell-based, human; design: key to Activity against 231: +, active; −, no activity; +/−, poorly active
Protocol: as §1

[5] = test system: normal NIH3T3 mouse fibroblasts; test: CyQuant cell viability/proliferation assay, NIH3T3; format: cell-based; design: key to Activity against 3T3: +, active; −, no activity; +/−, poorly active
Protocol: as §1

[6] = test system: STAT3 DNA-binding activity; test: STAT3 DNA-binding activity (EMSA) of nuclear extracts from treated tumor cells; conditions: 5 micromolar, time course
Protocol: Positions of STATs:DNA complexes or proteins in gel are labeled; control lanes (0) represent nuclear extracts or whole-cell lysates prepared from 0.05% DMSO-treated cells.
Nuclear extract preparations and DNA-binding/electrophoretic mobility shift assay (EMSA) were carried out as previously described (Xu, supra). Nuclear extract preparations and DNA-binding activity/electrophoretic mobility shift assay (EMSA) were carried out as previously described. U251 MG and MDA-MB-231 cells culture were pretreated with different concentrations of the compounds for the indicated period and then harvested for nuclear extract preparation and DNA-binding assay with EMSA analysis. […] Except where indicated, nuclear extracts were pre-incubated with compound for 30 min at room temperature prior to incubation with the radiolabeled probe for 30 min at 30° C. before subjecting to EMSA analysis.

[7] = test system: STAT3 tyrosine phosphorylation; conditions: Butturini et al. 2011; cited from earlier work
[8] = test system: intracellular glutathione; conditions: literature reports, cited from earlier work
[9] = test system: GSH levels in U251 MG cells; test: Glutathione (GSH) levels in U251 MG cells
Protocol: Reduced glutathione (GSH) and oxidized glutathione disulfide (GSSG) levels were assayed using a commercially available kit (Cayman Chemical, Ann Arbor, Mich.) and following the manufacturer's instructions.

[10] = Table 1 grade, Table 1/FIG. 2 compound numbering

Stat3, sequence (P40763 whole entry, species assumed): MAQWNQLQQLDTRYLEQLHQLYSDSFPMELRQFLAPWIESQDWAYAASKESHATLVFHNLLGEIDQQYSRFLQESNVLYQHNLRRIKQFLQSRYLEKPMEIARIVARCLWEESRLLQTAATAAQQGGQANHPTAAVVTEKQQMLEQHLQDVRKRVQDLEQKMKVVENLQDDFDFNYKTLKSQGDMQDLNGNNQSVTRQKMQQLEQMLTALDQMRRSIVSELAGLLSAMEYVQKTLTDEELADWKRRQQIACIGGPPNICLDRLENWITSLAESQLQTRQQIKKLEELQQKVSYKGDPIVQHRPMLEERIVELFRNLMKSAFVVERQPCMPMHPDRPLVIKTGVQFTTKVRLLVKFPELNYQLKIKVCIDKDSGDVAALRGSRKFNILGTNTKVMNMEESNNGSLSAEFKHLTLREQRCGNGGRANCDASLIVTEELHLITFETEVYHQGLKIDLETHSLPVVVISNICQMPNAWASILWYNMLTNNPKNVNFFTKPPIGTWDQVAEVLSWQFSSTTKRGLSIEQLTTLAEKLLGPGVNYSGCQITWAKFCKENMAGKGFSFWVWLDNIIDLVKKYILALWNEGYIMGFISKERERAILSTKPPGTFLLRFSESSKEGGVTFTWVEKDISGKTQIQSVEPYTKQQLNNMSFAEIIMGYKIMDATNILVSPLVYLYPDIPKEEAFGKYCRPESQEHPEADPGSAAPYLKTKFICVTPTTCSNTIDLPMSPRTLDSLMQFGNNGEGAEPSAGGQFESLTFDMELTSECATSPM
T1 sequence (P42227 whole entry): as the sequence (P40763 whole entry, species assumed) above, with E760D counted along it

SMILES | Activity against U251 [1] | Activity against the cell lines, in words ([1]; Table 1/FIG. 2 numbering) | Activity against Stat3 (Stat3) | Inhibition of STAT3 DNA-binding activity in vitro (EMSA) [2] | Effect on pY705STAT3 / STAT3 activity (immunoblot), in words [3] | Tyrosine-phosphorylation of STAT3 in cells treated with IL-6 [7] | other results
C=C(C)C(=O)OC1CC(C)C2(O)CCC(C)(C=C3OC(=O)C(CO)=C31)O2 (stereo not shown) [Compound 18] | +/− | moderate to weak activity | − | moderate to no effect | little effects on pY705STAT3 |  | 
CC=C(C)C(=O)OC1CC(C)C2(O)CCC(C)(C=C3OC(=O)C(CO)=C31)O2 (stereo not shown) [Compound 19] | − | moderate to weak activity | − | moderate to no effect | little effects on pY705STAT3 |  | 
CC=C(C)C(=O)OC1CC(C)C2(O)CCC(C)(C=C3OC(=O)C(COC(C)=O)=C31)O2 (stereo not shown) [Compound 20] |  |  | + | strong inhibition | early inhibition at 15-30 min |  | IC50 ([1]; 72-h treatment, Table 1/FIG. 2 numbering, read-out: IC50 for the inhibition of U251MG cell viability): 4.3 µM; Cell-type selectivity of growth inhibition, in words ([1]; Table 1/FIG. 2 numbering): selective against the growth of human glioma U251MG cells; Activity against 231 [4, 10]: +; Activity against 3T3 [5, 10]: +/−; Inhibition of STAT3 DNA-binding activity in treated cells (EMSA) [6]: early inhibition at 15-30 min
C=C(C)C(=O)OC1CC(C)C2(OC)CCC(C)(C=C3OC(=O)C(CO)=C31)O2 (stereo not shown) [Compound 28] | − | moderate to weak activity | − | moderate to no effect | little effects on pY705STAT3 |  | 
C=C1C(=O)O[C@@H]2/C=C(\C)CC/C=C(\C)CC[C@@H]12 [costunolide, reference compound] |  |  |  |  |  | inhibited the tyrosine-phosphorylation of STAT3 | inhibition at 5 µM ([1]; Homo sapiens, U-251, at 5 μM, 72 h, Table 3 numbering (isolates 1-16)): 17.5%; Cell-type selectivity of growth inhibition, in words ([1]; Table 1/FIG. 2 numbering): generally toxic to U251MG and normal NIH3T3; Cell-type selectivity of growth inhibition, in words ([1]; Table 1/FIG. 2 numbering, listed as costinulide): non-specfically active against glioma U251MG and normal NIH3T3 mouse fibroblasts; inhibition at 5 µM ([4]; Homo sapiens, MDA-MB-231, at 5 μM, 72 h, Table 3 numbering (isolates 1-16)): 10.5%; inhibition at 5 µM ([5]; Mus musculus, NIH3T3, at 5 μM, 72 h, Table 3 numbering (isolates 1-16), read-out: NIH-3T3 % inhibition): 41.6%; Intracellular glutathione content [8]: rapid drop in intracellular glutathione content; Intracellular glutathione content ([8]; listed as costinulide): suppress the intracellular glutathione (GSH) pool; Effect on GSH levels [9]: suppressed GSH levels; Effect on pY705STAT3 / STAT3 activity (immunoblot), in words ([3]; listed as costinulide): little effect on STAT3 activity; also recorded: minimal effects on pY705STAT3; Inhibition of pY705STAT3 (immunoblot), in words ([3]; Table 3 numbering (isolates 1-16)): negligible or weak
C=C1CC[C@H]2C(=C)CC[C@H]3C(=C)C(=O)O[C@@H]3[C@@H]12 [dehydrocostuslactone] |  |  |  |  |  | inhibited the tyrosine-phosphorylation of STAT3 | Intracellular glutathione content [8]: rapid drop in intracellular glutathione content
C/C1=C\[C@H]2OC(=O)[C@@H](C)[C@@H]2CC/C(C)=C/CC1 [dihydrocostunolide] |  |  |  |  |  | failed to exert inhibitory action toward STAT3 tyrosine phosphorylation | 

From patent US10800790B2, “Sesquiterpenoid STAT3 inhibitors” (University of Hawaii, priority 2013, dated 2020)
